The values that follow are results of earlier work, collected in US7364752B1, “Solid dispersion pharamaceutical formulations” (Abbott Laboratories, priority 1999, dated 2008).

For this series the following is noted: PEG solid dispersion formulation.

`O=C1N(Cc2ccc(CO)cc2)[C@H](Cc2ccccc2)[C@H](O)[C@@H](O)[C@@H](Cc2ccccc2)N1Cc1ccc(CO)cc1` [DMP 323]: the bioavailability result is given as “unable to improve the bioavailability”.
